Here are results for 6 molecules from ChEMBL document CHEMBL1128477, “5,7-dihydro-3-[2-[1-(phenylmethyl)-4-piperidinyl]ethyl]-6H- pyrrolo[3,2-f]-1,2-benzisoxazol-6-one: a potent and centrally-selective inhibitor of acetylcholinesterase with an improved margin of safety” (J Med Chem, 1995).

Structures are written as SMILES.

Data set [1] concerns the target Cholinesterase (Homo sapiens, UniProt P06276).
Description: In vitro inhibition of Butyrylcholinesterase from human erythrocytes
Data set [2] has as its target Acetylcholinesterase (Homo sapiens, UniProt P22303).
Description: In vitro inhibition of Acetylcholinesterase from human erythrocytes
Data set [3] is described as follows: in vivo.
Description: LD50 for actute lethality is defined as the dose that resulted in the death of 50% of the animals 1 hr after treatment.
Data set [4] is filed under the species Rattus norvegicus. As to the kind of experiment: animal or person. The settings on record: 3 h.
Data set [5] is filed under the species Rattus norvegicus. As to the kind of experiment: animal or person.
Description: ED50 for salivation was defined as the dose required to produce a level 2 rating on a 0-4 point scale after treatment.
Data set [6] is described as follows: Safety index is the ratio of acute lethality LD50 to extracellular AchE ED50. It is filed as toxicity. Particulars: read-out: Safety index.

Chain of Acetylcholinesterase (P22303 whole entry): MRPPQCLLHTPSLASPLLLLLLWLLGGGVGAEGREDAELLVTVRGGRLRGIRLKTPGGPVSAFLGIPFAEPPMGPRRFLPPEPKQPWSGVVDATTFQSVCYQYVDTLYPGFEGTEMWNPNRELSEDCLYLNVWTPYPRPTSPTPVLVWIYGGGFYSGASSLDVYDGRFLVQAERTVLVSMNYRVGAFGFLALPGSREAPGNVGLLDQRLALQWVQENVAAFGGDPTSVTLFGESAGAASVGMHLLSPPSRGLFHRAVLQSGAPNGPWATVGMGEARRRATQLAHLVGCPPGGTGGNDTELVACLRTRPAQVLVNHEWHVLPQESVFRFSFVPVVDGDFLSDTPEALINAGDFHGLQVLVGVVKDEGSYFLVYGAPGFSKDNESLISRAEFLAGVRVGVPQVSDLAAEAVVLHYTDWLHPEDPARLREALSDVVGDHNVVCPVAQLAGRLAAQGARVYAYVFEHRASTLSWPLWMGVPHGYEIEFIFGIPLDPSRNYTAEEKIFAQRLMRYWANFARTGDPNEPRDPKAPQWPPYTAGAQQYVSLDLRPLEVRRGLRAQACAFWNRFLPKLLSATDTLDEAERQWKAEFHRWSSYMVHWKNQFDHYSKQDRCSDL
Chain of Cholinesterase (P06276 whole entry): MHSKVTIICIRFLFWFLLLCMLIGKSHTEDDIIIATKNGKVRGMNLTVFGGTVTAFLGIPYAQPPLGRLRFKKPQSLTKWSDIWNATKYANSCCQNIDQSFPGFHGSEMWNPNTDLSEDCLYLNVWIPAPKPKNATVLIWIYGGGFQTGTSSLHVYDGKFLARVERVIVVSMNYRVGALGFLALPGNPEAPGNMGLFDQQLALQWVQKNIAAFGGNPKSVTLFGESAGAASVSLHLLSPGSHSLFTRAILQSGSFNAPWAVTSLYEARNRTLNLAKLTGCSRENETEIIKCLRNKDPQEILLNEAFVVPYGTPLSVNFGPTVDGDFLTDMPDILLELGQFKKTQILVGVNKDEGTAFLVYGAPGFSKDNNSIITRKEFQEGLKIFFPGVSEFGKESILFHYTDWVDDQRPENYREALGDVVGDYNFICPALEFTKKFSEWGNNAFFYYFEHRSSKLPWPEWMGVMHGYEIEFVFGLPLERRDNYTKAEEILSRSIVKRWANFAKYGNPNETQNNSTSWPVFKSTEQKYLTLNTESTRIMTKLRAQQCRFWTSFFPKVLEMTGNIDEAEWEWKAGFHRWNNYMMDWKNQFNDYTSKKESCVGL

On to `O=C1Cc2cc3onc(CCC4CCN(Cc5ccccc5)CC4)c3cc2N1`, for which the concentration for half-maximal inhibition (IC50) (in general, the concentration that inhibits the measured activity by half) was determined as 3900 nM in data set [1] and 0.95 nM in data set [2].

As for `O=C1CCc2cc3c(CCC4CCN(Cc5ccccc5)CC4)noc3cc2N1`, the half-maximal inhibitory concentration (IC50) in data set [1] amounted to 4000 nM; in data set [2], 0.57 nM.

`CC(=O)Nc1ccc2c(CCC3CCN(Cc4ccccc4)CC3)noc2c1` had an IC50 in data set [1] of 9000 nM.

As to `CN1C(=O)Cc2cc3c(CCC4CCN(Cc5ccccc5)CC4)noc3cc21`, the IC50 in data set [1] was 4500 nM; in data set [2], 0.48 nM.

Take `O=C1Cc2c(ccc3c(CCC4CCN(Cc5ccccc5)CC4)noc23)N1`: the IC50 in data set [1] was 2200 nM; in data set [2], 3.6 nM.

`O=C(O)/C=C\C(=O)O.O=C1Cc2cc3c(CCC4CCN(Cc5ccccc5)CC4)noc3cc2N1` [ICOPEZIL MALEATE]: in data set [3], the LD50 (as a rule, the dose at which mortality reaches 50%) at 1 h was 42 mg/kg. Also, the values for the ED50 in data set [4] and in data set [5] were 0.4 mg/kg and 26 mg/kg, respectively. Further, the half-inhibitory concentration (IC50) in data set [1] worked out at 7200 nM; in data set [2], 0.33 nM. The selectivity ratio in data set [6] was found to be 105.
